Laboratory results from PubChem BioAssay AID624145 (Sanford-Burnham Center for Chemical Genomics, 2012).
Activity calls are given as the source filed them.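 Rule for the calls: active = EC50 at or below 20 µM; inactive = the rest.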

System: hiPSC single-cell survival, DAPI nuclei count imaging
Test: enhancers of single-cell hiPSC survival, dose response, imaging, fluorescence imaging, uHTS hits (AID 624145)

| Compound | EC50 |
| --- | --- |
| O=C(Nc1nc(-c2ccncc2)cs1)C1COc2ccccc2O1 (stereo not drawn) | 1.86 µM |
| CCn1c(Cl)c(C=O)s/c1=N\S(=O)(=O)c1ccccc1 | > 80 µM (inactive) |
| C=C1C(C)C2C(Cc3ccccc3)NC(=O)C23OC(=O)/C=C/C(O)CCCC(C)C/C=C/C3C1O (stereo not drawn) | 12.5 µM |
| C=C1[C@@H](C)[C@H]2[C@H](Cc3ccccc3)NC(=O)[C@]23OC(=O)/C=C/[C@H](O)CCC[C@@H](C)C/C=C/[C@H]3[C@@H]1O | 12.5 µM |
| O=C(Nc1ccncc1)c1cc(S(=O)(=O)N2CCOCC2)ccc1Cl | 13.8 µM |
| CCC(C(=O)Nc1ccc2[nH]ncc2c1)c1ccccc1 (stereo not drawn) | 6.49 µM |
| O=C(Nc1ccncc1)c1c(F)c(F)c(F)c(F)c1F | 5.46 µM |
| COc1ccccc1Sc1nc(-c2ccccn2)ncc1OC | 45.7 µM (inactive) |
| O=S(=O)(c1cccc2cnccc12)N1CCNCC1 | 2.05 µM |
| C=C(C)[C@@]12OC3(c4ccccc4)O[C@@H]1C1[C@@H]4O[C@]4(CO)[C@@H](O)[C@]4(O)C(=O)C(C)=C[C@H]4[C@@]1(O3)[C@H](C)[C@H]2OC(=O)/C=C/C=C/c1ccccc1 (stereo partly drawn) | > 80 µM (inactive) |
| C=C1C(=O)OC2CC(C)C3C=CC(=O)C3(C)C(O)C12 (stereo not drawn) | > 80 µM (inactive) |
| CNc1cc(Cl)c2nonc2c1[N+](=O)[O-] | > 80 µM (inactive) |
| CC(C)(C)NC(=O)Cn1nnc(-c2ccccc2NC(=O)c2cnccn2)n1 | > 80 µM (inactive) |
| C=C1C(=O)O[C@@H]2C[C@@H](C)[C@@H]3C=CC(=O)[C@@]3(C)[C@@H](O)[C@H]12 | > 80 µM (inactive) |
| CN1C/C(=C/c2cccnc2)C(=O)/C(=C/c2cccnc2)C1 | > 80 µM (inactive) |
| CCCCn1c(=O)[nH]c(=O)c2c1nc(Cn1ncc(Cl)c(Cl)c1=O)n2CCC | > 80 µM (inactive) |
| O=C(Nc1ccncc1)c1c(F)cccc1F | 13.6 µM |
| c1ccc(CN2CCN(c3nc(NCc4ccco4)c4ccccc4n3)CC2)cc1 | 5.81 µM |
| CCOCCCNC(=O)/C(C#N)=C/c1ccc([N+](=O)[O-])o1 | > 80 µM (inactive) |
| CCCSc1nc(N2CCOCC2)c2c(c1C#N)CC(C)(C)SC2 | > 80 µM (inactive) |
| O=C(C(O)c1ccc(Br)cc1)N1CCC(Nc2ccc3[nH]ncc3c2)CC1 (stereo not drawn) | 5.88 µM |
| NC(=O)c1ccc(NC(=O)CCC(=O)c2cccs2)cc1 | 7.14 µM |
| CC1C/C(=C/c2ccncc2)C(=O)/C(=C/c2ccncc2)C1 (stereo not drawn) | > 80 µM (inactive) |
| CCCNC(=O)COC(=O)c1ccccc1C(=O)c1ccc(Cl)c([N+](=O)[O-])c1 | > 80 µM (inactive) |
| Cc1nnc2n(C3CCCCC3)c(=O)c3c4c(sc3n12)COC(C)(C)C4 | > 80 µM (inactive) |
| CCCCCCC[C@@H](C/C=C/CCC(=O)N(C)C/C(=C/Cl)C/C(=C\C(=O)N1CC(OC)=CC1=O)OC)OC | 0.525 µM |
| CCN1C/C(=C\c2cccc([N+](=O)[O-])c2)C(=O)/C(=C/c2cccc([N+](=O)[O-])c2)C1 | > 80 µM (inactive) |

| Compound | EC50 |
| --- | --- |
| C=C1C(C)C2C(Cc3ccccc3)NC(=O)C23C(OC(C)=O)C=CC(C)(O)CC(C)CC=CC3C1O (stereo not drawn) | > 80 µM (inactive) |
| O=C(Nc1ccncc1)c1ccccc1[N+](=O)[O-] | 33.4 µM (inactive) |
| O=C(NCc1ccccc1)c1ccc(-c2cn[nH]c2)c2ccoc12 | 1.1 µM |
| O=C(NCC1CC1)c1ccc(-c2cn[nH]c2)c2ccoc12 | 14.2 µM |
| CC(OC(=O)c1ccc2c(=O)n3c(nc2c1)CCC3)C(=O)Nc1ccc(C(N)=O)cc1 (stereo not drawn) | 28.4 µM (inactive) |
| Cc1c(C(=O)OCC(=O)Nc2ccc(C(N)=O)cc2)cccc1[N+](=O)[O-] | > 80 µM (inactive) |
| CC1(C)Cc2c(C#N)c(SCC(=O)c3ccccc3)nc(N3CCOCC3)c2CS1 | 39.3 µM (inactive) |
| CC(OC(=O)c1cccc(S(=O)(=O)N2CCN(C)CC2)c1)C(=O)Nc1ccc(C(N)=O)cc1 (stereo not drawn) | 35.6 µM (inactive) |
| CC(Oc1ccccc1)C(=O)Nc1nc(-c2ccncc2)cs1 (stereo not drawn) | 42.9 µM (inactive) |
| O=C(Nc1ccncc1)c1ccccc1F | 28.2 µM (inactive) |
| O=C(COc1ccccc1)Nc1nc(-c2ccncc2)cs1 | 29.3 µM (inactive) |
| CCN1C/C(=C/c2cccc([N+](=O)[O-])c2)C(=O)/C(=C/c2cccc([N+](=O)[O-])c2)C1 | > 80 µM (inactive) |
| COC(=O)CCSc1cc([N+](=O)[O-])cc2c1c(C1OCCS1)nn2-c1ccccc1 (stereo not drawn) | > 80 µM (inactive) |
| CC(OC(=O)c1ccc(S(=O)(=O)N2CCCCC2)cc1)C(=O)Nc1ccc(C(N)=O)cc1 (stereo not drawn) | 10.5 µM |
| CC1(C)Cc2c(C#N)c(NCC3CCCO3)nc(-c3ccco3)c2CO1 (stereo not drawn) | 42.8 µM (inactive) |
| O=C1/C(=C/c2ccncc2)CCC/C1=C\c1ccncc1 | > 80 µM (inactive) |
| COc1ccc2c(c1)c(=O)c(C(=O)c1ccc(Cl)cc1)cn2CC(=O)Nc1ccc(F)cc1 | 18.6 µM |
| O=C(Nc1ccncc1)c1cc(S(=O)(=O)N2CCCC2)ccc1Cl | 13.6 µM |
| O=c1c(Cl)c(Cl)cnn1Cc1nnc(-c2ccccc2Br)o1 | > 80 µM (inactive) |
| CN(Cc1ccc(C(F)(F)F)cc1)C(=O)[C@H]1O[C@@H](n2cnc3c(N)ncnc32)[C@H](O)[C@@H]1O | 20.8 µM (inactive) |
| COCCNC(=O)c1ccc(-c2cn[nH]c2)c2ccoc12 | 19.2 µM |
| N#C/C(=C/c1cccc([N+](=O)[O-])c1)c1nnc2n1CCCCC2 | > 80 µM (inactive) |
| CN1C2CCC1/C(=C/c1ccccn1)C(=O)/C2=C\c1ccccn1 | > 80 µM (inactive) |
| O=C(Cc1ccc(Br)cc1)Nc1ccc2[nH]ncc2c1 | 19.1 µM |
| CN1Cc2cnnn2-c2ccccc2C1C#N (stereo not drawn) | 26.5 µM (inactive) |
| CN(C(=O)COC(=O)c1nc(Cl)c(Cl)c(Cl)c1Cl)C1CCS(=O)(=O)C1 (stereo not drawn) | > 80 µM (inactive) |
